# Entries after “also recorded” stand apart in the source; their conditions may differ.
# Experiments:
# [1] = Metal reduction assay, Cu^2+ (BC indicator); assay type: biochemical; conditions: Cu^2+ 10 μM; PBS pH 7.4; 1 hr, 37° C.
# Procedure: (§1) Polypeptides (10 μM) or Vitamin C (100 μM), metal ions (10 μM, Fe(NO3)3 or Cu(NO3)2), and reduced metal ion indicators, bathophenanthrolinedisulfonic acid (BP, for Fe^2+, Sigma, 200 μM) or bathocuproinedisulfonic acid (BC, for Cu^+, Sigma, […]), were coincubated in phosphate buffered saline (PBS), pH 7.4, for 1 hr at 37° C. The metal ion solutions were prepared by direct dilution in the buffer from their aqueous stocks purchased from National Institute of Standards and Technology (NIST). Absorbances were then measured at 536 nm (Fe^2+-BP complex) and 483 nm (Cu^+-BC complex), respectively, using a 96-well plate reader (SPECTRAmax 250, Molecular Devices, Calif.). In control samples, both metal ion and indicator were present to determine the background buffer signal. As a further control, both metal ion and peptide were present in the absence of indicator to estimate the contribution of light scattering due to turbidity to the absorbance reading at these wavelengths. The net absorbances (ΔA) at 536 nm or 483 nm were obtained by deducting the absorbances from these controls from the absorbances generated by the peptide and metal in the presence of the respective indicator.
# [2] = Metal reduction assay, Fe^3+ (BP indicator); assay type: biochemical; conditions: Fe^3+ 10 μM; PBS pH 7.4; 1 hr, 37° C.
# Procedure: as §1, with “The metal reduction assay was performed using a 96-well microtiter plate (Costar) based upon a modification of established protocols (Landers, J. W., et al., Amer. Clin. Path. 29:590 (1958); Landers. J. W. et al., Clinica Chimica Acta 3:329 (1958)). Polypeptides” for “Polypeptides”
# The concentrations of reduced metal ions (Fe^2+ or Cu^+) were quantified based on the formula: Fe^2+ or Cu^+ (˜M)=A*10^6/(L*M), where L is the measured equivalent vertical pathlength for a well of 300 μL volume as described in the instrument's specifications manual (0.856 cm for Fe^2+; 1.049 cm for Cu^+); M is the known molecular absorbance (M^−1 cm^−1) which is 7124 (for Fe^2+-BP complex) or 2762 (for Cu^+-BC complex).
# Aβ1-42 = Aβ1-42 (Homo sapiens, UniProt P05067); experiment: Effect of OH. scavengers on OH. generation by Aβ1-42 (TBARS); assay type: biochemical; conditions: scavenger 5 mM; Fe^3+ or Cu^2+
# Procedure: (§2) FIGS. 16A and 16B are graphical representations showing production of the hydroxyl radical (OH.) from the incubation of Aβ in the presence of substoichiometric amounts of Fe^3+ or Cu^2+. […] All data points are means±SD, n=3.
# (§3) The Thiobarbituric Acid-Reactive Substance (TBARS) assay for incubation mixtures with Fe^3+ or Cu^2+ was performed in a 96-well microtiter format modified from established protocols (Gutteridge et al. Biochim. Biophys. Acta 759: 38–41 (1983)). Aβ peptide species (10 μM) or Vitamin C (100 μM), were incubated with Fe^3+ or Cu^2+ (1 μM) and deoxyribose (7.5 mM, Sigma) in PBS, pH 7.4. Following incubation (37° C., 1 hour), glacial (17 M) acetic acid and 2-thiobarburic acid (1%, w/v in 0.05 M NaOH, Sigma) were added and heated (100° C., 10 min). The final mixtures were placed on ice for 1–3 minutes before absorbances at 532 nm were measured. The net absorbance change for each sample were obtained by deducting the absorbance from a control sample consisting of identical chemical components except for the Vitamin C or Aβ peptides.
# [3] = Effect of OH. scavengers on OH. generation by Vitamin C (TBARS); assay type: biochemical; conditions: scavenger 5 mM
# Procedure: as §2, §3
# [4] = Cu^+ generation / metal reduction (Example 2); assay type: biochemical; conditions: 10 μM in PBS; Cu^2+ 10 μM; 30 minutes, 37° C.
# Procedure: This method is modified from a protocol assaying serum copper and iron (Landers, J. W., et al., Amer. J. Clin. Path. 29:590 (1958)). It is based on the fact that there are optimal visible absorption wavelengths of 483 nm and 535 nm for Cu^+ complexed with bathocuproinedisulfonic (BC) anion and Fe^2+ coordinated by bathophenanthrolinedisulfonic (BP) anion, respectively.
# Aβ (10 μM in PBS, pH 7.4 or 6.8, as shown) was incubated for 30 minutes (37° C.) in the presence of Cu^2+ 10 μM±Zn^2+ 10 μM). Cu^+ levels (n=3, ±SD) were assayed against a standard curve.
# [5] = system: Aβ deposits in AD brain tissue; experiment: Chelator-promoted solubilization (extraction) of Aβ from AD brain homogenates, Western blot densitometry; assay type: biochemical, human; conditions: for Effect of Chelators (% change from control) upon extraction of Aβ: mean of 6 AD brain samples; for chelator concentration of peak Aβ solubilization (lower peak) / chelator concentration of peak Aβ solubilization (upper peak): titration curves
# Procedure: 0.5 g of prefrontal cortex was dissected and homogenized in PBS±chelator as indicated. The homogenate was then centrifuged (100,000 g) and the supernatant removed, and a sample taken for western blot assay using anti-Aβ specific antibodies after Tricine PAGE. Densitometry was performed against synthetic peptide standards.
# (§4) Suitable quantities of gray matter from each subject were minced to serve as pools of homogenous tissue. […] To obtain the soluble fraction, the homogenates were centrifuged at 100,000×g for 30 min (Beckman J180, Beckman instruments, Fullerton, Calif.) and the supernatant collected in 1 ml aliquots and stored on ice or immediately frozen at −70° C. In each experiment, all protein was precipitated from 1 ml of supernatant from each treatment group using 1:5 ice cold 10% trichloracetic acid and pelleted in a bench top microfuge (Heraeus, Osteroder, Germany) at 10,000×g. The remaining pellet was frozen at −70° C.
# Precipitated protein was subjected to SDS polyacrylamide gel electrophoresis (SDS-PAGE) on Novex pre-cast 10–20% Tris-Tricine gels followed by Western transfer onto 0.2 μm nitrocellulose membrane (Biorad, Hercules, Calif.). […] Each gel included two or more lanes containing known quantities of synthetic Aβ which served as internal reference standards. Blot images were captured by a Relisys scanner with transparency adapter (Teco Information Systems, Taiwan, ROC) and densitometry conducted using the NIH Image 1.6 program (National Institutes for Health, USA., Modified for PC by Scion Corporation, Frederick, Md.), calibrated using a step diffusion chart. For quantitation of Aβ in brain extracts, the internal reference standards of synthetic Aβ were utilized to produce standard curves from which values were interpolated.
# [6] = system: Aβ deposits in age-matched control / healthy brain tissue; experiment: Chelator-promoted solubilization of Aβ from non-AD control brain tissue, Western blot; assay type: biochemical, human; conditions: chelator 2 mM
# Text: Using the same technique, zinc-mediated assembly of Aβ in normal brains was shown. FIGS. 20A and 20B show sedimentable Aβ deposits in healthy brain tissue. The effects of chelators in enhancing Aβ extraction from brain homogenates is also observed in normal tissue. FIG. 20A illustrates a western blot with anti-Aβ antibody of material extracted from an individual with no history of neurological disorder. T=TPEN, E=EGTA, B=bathocuproine.
# as §4
# Precipitated protein was subjected to SDS polyacrylamide gel electrophoresis (SDS-PAGE) on Novex pre-cast 10–20% Tris-Tricine gels followed by Western transfer onto 0.2 μm nitrocellulose membrane (Biorad, Hercules, Calif.). Aβ was detected using the WO2, G210 or G211 monoclonal antibodies (Ida, N. et al., J. Biol. Chem. 271:22908 (1996)) in combination with HRP-conjugated rabbit anti-mouse IgG (Dako, Denmark), and visualized using chemiluminescence (ECL, Amersham Life Science, Little Chalfont, Buckinghamshire, UK). Each gel included two or more lanes containing known quantities of synthetic Aβ which served as internal reference standards. […] For quantitation of Aβ in brain extracts, the internal reference standards of synthetic Aβ were utilized to produce standard curves from which values were interpolated.
# [7] = chelator 2 mM, mean of AD subjects 1-6
# Aβ1-42, sequence (P05067 672-713 limits assumed): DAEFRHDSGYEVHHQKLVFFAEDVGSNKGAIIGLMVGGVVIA
molecule,measurement,setting,value
"Aβ1-28: Aβ fragment 1-28, purchased",available Cu^2+ reduced,[1],reduced no Cu^2+
same,available Fe^3+ reduced,[2],did not significantly facilitate the reduction of Fe^3+
"C[S+](C)[O-] [DMSO, dimethyl sulfoxide]",effect on generation of OH. by Aβ1-42,Aβ1-42,neither were able to quench
same,effect on generation of OH. by Vitamin C,[3]; in the presence of Cu^2+,suppressed
same,effect on generation of OH. by Vitamin C,[3]; in the presence of Fe^3+,suppressed
Aβ1-42: synthetic human Aβ1-42 peptide,available Fe^3+ reduced,[2],50%
OC[C@@H](O)[C@@H](O)[C@H](O)[C@H](O)CO [Mannitol],effect on generation of OH. by Aβ1-42,Aβ1-42,neither were able to quench
same,effect on generation of OH. by Vitamin C,[3]; in the presence of Fe^3+,suppressed
insulin: histidine-containing peptide that can bind copper and zinc,available Cu^2+ reduced,[1],10%
same,available Fe^3+ reduced,[2],did not significantly facilitate the reduction of Fe^3+
same,Cu^2+ reduction / redox reactivity,[4],no Cu^2+ reduction
"c1ccc(CN(CCN(Cc2ccccn2)Cc2ccccn2)Cc2ccccn2)nc1 [TPEN, N,N,N′,N′-tetrakis [2-pyridyl-methyl]ethylenediamine]",mean increase in solubilized Aβ over PBS alone,[5]; 6 AD brains,around 2 fold
same,Effect of Chelators (% change from control) upon extraction of Aβ,[5]; chelator 0.1 mM,182%
same,Effect of Chelators (% change from control) upon extraction of Aβ,[5]; chelator 2.0 mM,241%
same,"Extractable Aβ (% of total), mean X",[5]; [7],(4.6) %
same,"Extractable Aβ, mean X",[5]; [7],2.73 µg/g
same,X C/PBS,"[5]; chelator 2 mM, mean with chelator over mean with PBS, AD",2.60
same,chelator concentration of peak Aβ solubilization (lower peak),[5],~0.004 mM
same,chelator concentration of peak Aβ solubilization (upper peak),[5],~0.1 mM
same,"Extractable Aβ (% of total), mean X",[6]; mean of AC subjects 1-5,(16.7) %
same,"Extractable Aβ, mean X",[6]; mean of AC subjects 1-5,0.40 µg/g
same,X C/PBS,"[6]; mean with chelator over mean with PBS, AC",1.6
O=C(O)CN(CCOCCOCCN(CC(=O)O)CC(=O)O)CC(=O)O [EGTA],Effect of Chelators (% change from control) upon extraction of Aβ,[5]; chelator 0.1 mM,207%
same,effect on Aβ signal,[5]; chelator 2 mM,virtually abolished the signal for Aβ; also recorded: always produced a diminution in Aβ signal
same,Effect of Chelators (% change from control) upon extraction of Aβ,[5]; chelator 2.0 mM,46%
same,chelator concentration of peak Aβ solubilization (lower peak),[5],~0.004 mM
same,chelator concentration of peak Aβ solubilization (upper peak),[5],~0.1 mM
"O=C1O[C@H]([C@@H](O)CO)C(O)=C1O [Vitamin C, ascorbic acid]",available Cu^2+ reduced,[1],reduced Cu^2+ efficiently
same,available Fe^3+ reduced,[2],15%

# — patent US7045531B1, “Composition comprising a metal chelator and a method of treating amyloidosis by administering the metal chelator” (The General Hospital Corporation, priority 1997, dated 2006)
